Experimental data published in patent USRE47493E1, “Substituted bicyclic dihydropyrimidinones and their use as inhibitors of neutrophil elastase activity” (Boehringer Ingelheim International GmbH, priority 2014, dated 2019).
Converted amounts (≈) assume the structure as drawn.

How the values were obtained:
[1] = Assay for the Determination of Metabolic Stability with Human Liver Microsomes; type: in vitro ADME; conditions: pooled human liver microsomes, 37° C., NADPH; for half-life at 1 nM: pH 7.6, read-out: t1/2 INVITRO
Method: Assay for the Determination of Metabolic Stability with Human Liver Microsomes
The metabolic degradation of the test compound is assayed at 37° C. with pooled human liver microsomes. The final incubation volume of […] per time point contains TRIS buffer pH 7.6 (0.1 M), magnesium chloride (5 mM), microsomal protein (1 mg/ml) and the test compound at a final concentration of […]. Following a short preincubation period at 37° C., the reactions are initiated by addition of beta-nicotinamide adenine dinucleotide phosphate, reduced form (NADPH, 1 mM) and terminated by transfering an aliquot into acetonitrile after different time points. Additionally, the NADPH-independent degradation is monitored in incubations without NADPH, terminated at the last time point. The rol remaining test compound after NADPH independent incubation is reflected by the parameter c(control) (metabolic stability). The quenched incubations are pelleted by centrifugation (10′000 g, 5 min) An aliquot of the supernatant is assayed by LC-MS/MS for the amount of parent compound.
The half-life (t1/2 INVITRO) is determined by the slope of the semilogarithmic plot of the concentration-time profile. The intrinsic clearance (CL_[…]) is calculated by considering the amount of protein in the incubation: CL_[…][μl/min/mg protein]=(ln 2/(half-life [min]*protein content [mg/ml]))*1′000.
The half-life (t1/2 INVITRO) values of selected compounds in the metabolic stability assay described above are listed in Table 15.

[2] = Assay for Determination of Aqueous Solubility; type: physicochemical; conditions: McIlvaine buffer pH 6.8, 2.5% DMSO; for Aqueous solubility: 24 h; for solubility at 24 h: McIlvaine buffer pH 6.8 with 2.5% DMSO, aqueous buffer, kinetic from dmso stock
Method: Assay for Determination of Aqueous Solubility
The aqueous solubility of a compound is determined by comparing the amount dissolved in aqueous buffer (containing 2.5% DMSO) to the amount dissolved in an acetonitrile/water (1/1) solution. Starting from a 10 mM DMSO stock solution, aliquots are diluted with acetonitrile/water (1/1) and Mcllvaine buffer pH 6.8, respectively. After 24 h of shaking, the solutions or suspensions are filtered and analyzed by LC-UV. The amount dissolved in buffer is compared to the amount dissolved in the acetonitrile/water (1/1) solution. Solubility is measured from 0.001 to 0.125 mg/ml at a DMSO concentration of 2.5%. If more than 90% of the compound is dissolved in buffer, the value is marked with “>”.

[3] = Assay for the Determination of Metabolic Stability with Human Hepatocytes; type: in vitro ADME; conditions: scaled with well stirred model
Method: Assay for the Determination of Metabolic Stability with Human Hepatocytes
The metabolic degradation of the test compound is assayed in a human hepatocyte suspension. Human hepatocytes (typically cryopreserved) are incubated in an appropriate buffer system (e.g. Dulbecco's modified eagle medium plus 3.5 μg glucagon/500 mL, 2.5 mg insulin/500 mL and 3.75 mg/500 mL hydrocortison) containing 5% species serum. Following a (typically) […] preincubation in an incubator (37° C., 10% CO2), 5 μl of test compound solution (80 μM; from 2 mM stock solution in DMSO diluted 1:25 with medium) are added into 395 μl hepatocyte suspension (cell density in the range 0.25-5*10^6 cells/mL, typically 1*10^6 cells/mL; final concentration of test compound 1 μM, final DMSO concentration […]). The cells are incubated for six hours (incubator, orbital shaker) and samples (25 μl) are taken at 0, 0.5, 1, 2, 4 and 6 hours. Samples are transferred into acetonitrile and pelleted by centrifugation (5 min). The supernatant is transferred to a new 96-deepwell plate, evaporated under nitrogen and resuspended. The decline of parent compound is analyzed by LC-MS/MS.
The intrinsic clearance CL_[…] is calculated as follows: CL_[…]=Dose/AUC=(C0/CD)/(AUD+clast/k)*1′000/60 (C0: initial concentration in the incubation [μM], CD: cell density of vital cells [10^6 cells/mL], AUD: area under the data [μM*h], clast: concentration of last data point [μM], k: slope of the regression line for parent decline [h^−1])
The calculated in vitro hepatic intrinsic clearance can be scaled up to the intrinsic in vivo hepatic clearance and used to predict hepatic in vivo blood clearance (CL) by the use of a is liver model (well stirred model): CL_[…]_INVIVO [ml/min/kg]=(CL_[…] [μL/min/10^6 cells]* hepatocellularity[10^6 cells/g liver]*liver factor[g/kg bodyweight])/1′000 CL[ml/min/kg]=CL_[…]_INVIVO [ml/min/kg]*hepatic blood flow [ml/min/kg]/(CL_[…]_INVIVO [ml/min/kg]+hepatic blood flow [ml/min/kg]) Qh[%]=CL[ml/min/kg]/hepatic blood flow[ml/min/kg]) (Hepatocellularity, human: 120*10^6 cells/g liver; lver factor, human: 25.7 g/kg bodyweight; blood flow, human: 21 ml/(min*kg))
The predicted human hepatic in vivo blood clearance (CL) of selected compounds in the metabolic stability assay described above are listed in Table 16.

[4] = Assay for Determination of Drug Transport Across Human CACO-2 Cells; type: in vitro ADME; conditions: human; for efflux ratio at 2 h, 10 nM: pH 7.2, Caco-2, PEBA/PEAB; for Papp A→B at 10 nM: Caco-2, apical-to-basal, read-out: PEAB; for Papp A→B at 10 nM / Papp B→A at 10 nM: pH 7.2, 37° C.; for Papp B→A at 10 nM: Caco-2, basal-to-apical, read-out: PEBA
Description: (§1) Assay for Determination of Drug Transport Across Human CACO-2 Cells
(§2) The assay provides information on the potential of a compound to pass the cell membrane, on the extent of oral absorption as well as on whether the compound is actively transported by uptake and/or efflux transporters. For the measurement of permeability across polarized, confluent human cancer colon carcinoma cells 2 (Caco-2) cell monolayers grown on permeable filter supports are used as the in vitro absorption model. Apparent permeability coefficients (PE) of the compounds across the Caco-2 monolayers are measured (pH 7.2, 37° C.) in apical-to-basal (AB) (absorptive) and basal-to-apical (BA) (secretory) transport direction. AB permeability (PEAB) represents drug absorption from the intestine into the blood and BA permeability (PEBA) drug secretion from the blood back into the intestine via both passive permeability as well as active transport mechanisms mediated by efflux and uptake transporters that are expressed on the Caco-2 cells. The compounds are assigned to permeability/absorption classes by comparison of the AB permeabilities with the AB permeabilities of reference compounds with known in vitro permeability and oral absorption in the human. Identical or similar permeabilities in both transport directions indicate passive permeation, vectorial permeability points to additional active transport mechanisms. […] Active transport is concentration-dependently saturable.
(§3) Caco-2 cells (1−2*10^5 cells/cm^2 area) are seeded on filter inserts (Costar transwell polycarbonate or PET filters, […] pore size) and cultured (DMEM) for 10 to 25 days. Compounds are dissolved in appropriate solvent (like DMSO, 1-20 mM stock solutions). Stock solutions are diluted with HTP-4 buffer (128.13 mM NaCl, 5.36 mM KCl, 1 mM MgSO4, 1.8 mM CaCl2, 4.17 mM NaHCO3, 1.19 mM Na2HPO4×7H2O, 0.41 mM NaH2PO4×H2O, 15 mM HEPES, 20 mM glucose, pH 7.2) to prepare the transport solutions (typically […] compound, final DMSO <=0.5%). The transport solution (TL) is applied to the apical or basolateral donor side for measuring A-B or B-A permeability (3 filter replicates), respectively. The receiver side contains HTP-4 buffer supplemented with 2% BSA. Samples are collected at the start and end of experiment from the donor and at various time intervals for up to 2 hours also from the receiver side for concentration measurement by LC-MS/MS or scintillation counting. Sampled receiver volumes are is replaced with fresh receiver solution.
(§4) The apparent permeability coefficients (PEAB and PEBA) and efflux ratios (PEBA/PEAB) of selected compounds in the Caco-2 drug transport assay described above are listed in Table 17.

Caco-2 cell monolayers = experiment: as above; type: in vitro ADME; conditions: for Efflux ratio: Caco-2, PEBA/PEAB; for PEAB: Caco-2, apical-to-basal; for PEAB / PEBA: pH 7.2, 37° C.; for PEBA: Caco-2, basal-to-apical
Description: as §1, §2, §3, §4

Row | SMILES | t1/2 INVITRO [1] [h] | Aqueous solubility [2] [µg/mL] | CL (predicted human hepatic in vivo blood clearance) [3] [mL/min/kg] | half-life at 1 nM [1] [h] | efflux ratio at 2 h, 10 nM [4] | Papp A→B at 10 nM [4] [×10⁻⁶ cm/s] | Papp B→A at 10 nM [4] [×10⁻⁶ cm/s] | solubility at 24 h [2] [µg/mL] | Efflux ratio (Caco-2 cell monolayers) | PEAB (Caco-2 cell monolayers) [×10⁻⁶ cm/s] | PEBA (Caco-2 cell monolayers) [×10⁻⁶ cm/s]
1 | N#Cc1ccc(C2C3=C(CCCC3=O)N(c3cccc(C(F)(F)F)c3)C(=O)N2C(=O)NCCO)cc1 (stereo not drawn) [Example 39.3] | >2.17 | 6 | – | – | – | – | – | – | – | – | –
2 | CS(=O)(=O)CCNC(=O)N1C(=O)N(c2cccc(C(F)(F)F)c2)C2=C(C(=O)CCC2)C1c1ccc(C#N)cc1 (stereo not drawn) [Example 39.19] | >2.17 | 9 | 0 | – | – | – | – | – | – | – | –
3 | CN1C(=O)N(c2cccc(C(F)(F)F)c2)C2=C(C(=O)CCC2)[C@H]1c1ccc(C#N)cc1S(C)(=O)=O [Example 48, (S)-4-(3-Methyl-2,5-dioxo-1-(3-(trifluoromethyl)phenyl)-1,2,3,4,5,6,7,8-octahydroquinazolin-4-yl)-3-(methylsulfonyl)benzonitrile] | – | – | 3 | > 2.17 | 1.6 | 60 | 98 | – | – | – | –
4 | CN1C(=O)N(c2ccnc(C(F)(F)F)c2)C2=C(C(=O)CCC2)C1c1ccc(C#N)cc1S(C)(=O)=O (stereo not drawn) [Example 64, 4-(3-Methyl-2,5-dioxo-1-(2-(trifluoromethyl)pyridin-4-yl)-1,2,3,4,5,6,7,8-octahydroquinazolin-4-yl)-3-(methylsulfonyl)benzonitrile] | – | – | 0 | > 2.17 | 4.4 | 17.1 | 75.7 | 8 (≈ 15.9 µM) | – | – | –
5 | CS(=O)(=O)c1cc(C#N)ccc1[C@@H]1C2=C(CCCC2=O)N(c2cccc(C(F)(F)F)c2)C(=O)N1S(C)(=O)=O [Example 68, (S)-3-(Methylsulfonyl)-4-(3-(methylsulfonyl)-2,5-dioxo-1-(3-(trifluoromethyl)phenyl)-1,2,3,4,5,6,7,8-octahydroquinazolin-4-yl)benzonitrile] | – | – | 0 | > 2.17 | – | – | – | 57 (≈ 100 µM) | – | – | –
6 | CS(=O)(=O)c1cc(C#N)ccc1[C@@H]1C2=C(CCCC2=O)N(c2cccc(C(F)(F)F)c2)C(=O)N1C(N)=O [Example 75, (S)-4-(4-Cyano-2-(methylsulfonyl)phenyl)-2,5-dioxo-1-(3-(trifluoromethyl)phenyl)-1,2,5,6,7,8-hexahydroquinazoline-3(4H)-carboxamide] | – | – | – | > 2.17 | – | – | – | 79 (≈ 148 µM) | – | – | –
7 | CC(C)NC(=O)N1C(=O)N(c2cccc(C(F)(F)F)c2)C2=C(C(=O)CCC2)[C@H]1c1ccc(C#N)cc1S(C)(=O)=O [Example 75.3] | >2.17 | 9 | 0 | – | – | – | – | – | 3.7 | 22.8 | 85.3
8 | CS(=O)(=O)c1cc(C#N)ccc1[C@@H]1C2=C(CCCC2=O)N(c2cccc(C(F)(F)F)c2)C(=O)N1C(=O)NCC(F)F [Example 75.7] | >2.17 | 905 | 0 | – | – | – | – | – | 10.8 | 8.4 | 90.6
